Data on nine molecules can be found in patent US9802947B2, “3-oxo-tetrahydro-furo[3,2-b]pyrrol-4(5H)-yl) derivatives II” (GRÜNENTHAL GMBH, priority 2014, dated 2017).

Format in all cases: biochemical
Assay [1] deals with recombinant human cathepsin S (hCatS) (Homo sapiens (Human), UniProt P25774). Kind of assay: CatS functional enzyme assay (fluorogenic substrate Z-VVR-AMC). The settings on record: Ki calculated by Cheng Prusoff equation; pH 6.5. How it is done:
(§1) Reference and test compounds were assayed for inhibitory potency (IC50) against human cathepsins using the following assay setups:
(§2) Recombinant human cathepsins (CatS, CatK, CatL, CatB) were purchased from a Enzo Life Sciences. All assays were carried out in 96-well format using a buffer of 50 mM KH2PO4, 50 mM NaCl, 2 mM EDTA, 0.5 mM DTT and 1% Triton-X-100, pH 6.5 for Cathepsin S and a buffer of 50 mM NaOAc, 10 mM EDTA, 1 mM DTT and 0.01% Triton-X-100, pH 5.5 for CatK/L/B. For CatS, the enzyme (0.0007 mU/well) was incubated with fluorogeninc substrate (Z-VVR-AMC, 5 μM) at RT for 10 min. For CatK the enzyme (0.00175 mU/well) was incubated with fluorogeninc substrate (Z-FR-AMC, 40 μM) at RT for 10 min. For CatL, the enzyme (0.000874 mU/well) was incubated with fluorogeninc substrate (Z-VVR-AMC, 40 μM) at RT for 10 min. For CatB the enzyme was incubated with fluorogenic substrate (Z-VVR-AMC, 200 μM) at RT for 10 min. Flourogenic substrate turnover was detected using a microplate reader (Synergyl™ H4, BioTek). Ki values were calculated using the Cheng Prusoff equation (Cheng & Prosoff 1973).

The target of assay [2] is recombinant human cathepsin K (hCatK) (Homo sapiens (Human), UniProt P43235). Kind of assay: CatK functional enzyme assay (fluorogenic substrate Z-FR-AMC). The conditions noted are these: for Ki: Ki calculated by Cheng Prusoff equation, pH 5.5; for Selectivity Ki(hCatS)/Ki(hCatK): ratio of Ki hCatS to Ki hCatK. The protocol: as §1, §2
In assay [3] the target is recombinant human cathepsin L (hCatL) (Homo sapiens (Human), UniProt P07711). Kind of assay: CatL functional enzyme assay (fluorogenic substrate Z-VVR-AMC). The settings on record: pH 5.5. How it is done:
as §1, §2

The term Ki denotes the equilibrium dissociation constant of an inhibitor or competing ligand from its target. The inhibition is the percentage by which the read-out fell short of the control.

Chain of recombinant human cathepsin S (hCatS) (P25774 115-331): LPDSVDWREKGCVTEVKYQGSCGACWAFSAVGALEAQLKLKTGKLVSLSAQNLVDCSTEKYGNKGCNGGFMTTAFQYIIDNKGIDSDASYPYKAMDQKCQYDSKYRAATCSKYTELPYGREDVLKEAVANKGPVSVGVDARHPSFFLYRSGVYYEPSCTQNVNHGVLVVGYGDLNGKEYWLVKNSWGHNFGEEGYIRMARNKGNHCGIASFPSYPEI
Chain of recombinant human cathepsin K (hCatK) (P43235 115-329): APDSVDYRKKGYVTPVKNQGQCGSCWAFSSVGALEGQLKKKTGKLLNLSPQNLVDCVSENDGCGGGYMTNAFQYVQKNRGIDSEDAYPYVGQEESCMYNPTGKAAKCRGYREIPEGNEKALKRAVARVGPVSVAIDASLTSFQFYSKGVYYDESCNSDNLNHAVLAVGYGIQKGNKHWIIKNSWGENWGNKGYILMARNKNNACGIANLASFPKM
Chain of recombinant human cathepsin L (hCatL) (P07711 114-333): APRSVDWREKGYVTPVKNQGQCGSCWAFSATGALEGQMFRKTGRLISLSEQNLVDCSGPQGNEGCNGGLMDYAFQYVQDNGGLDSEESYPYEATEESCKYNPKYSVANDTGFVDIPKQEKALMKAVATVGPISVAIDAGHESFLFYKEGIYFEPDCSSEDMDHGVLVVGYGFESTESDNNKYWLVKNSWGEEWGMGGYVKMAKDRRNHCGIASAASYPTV

As to `O=C(N[C@H](C(=O)N1C[C@H](Cl)[C@H]2OCC(=O)[C@H]21)C1CCCC1)c1cccc(-c2cccnc2)c1` [Comparative Example C1, N—((S)-2-((3aS,6S,6aS)-6-chloro-3-oxotetrahydro-2H-furo[3,2-b]pyrrol-4(5H)-yl)-1-cyclopentyl-2-oxoethyl)-3-(pyridin-3-yl)benzamide, reference compound], the Ki in assay [1] was 82.4 nM. In assay [2], the Ki is 14.8 nM and the “Selectivity Ki(hCatS)/Ki(hCatK)” value is listed as 6.

`O=C(N[C@H](C(=O)N1C[C@H](Cl)[C@H]2OCC(=O)[C@H]21)C1CCCC1)c1ccc(-c2cccnn2)s1` [Example 1, N—((S)-2-((3aS,6S,6aS)-6-chloro-3-oxotetrahydro-2H-furo[3,2-b]pyrrol-4(5H)-yl)-1-cyclopentyl-2-oxoethyl)-5-(pyridazin-3-yl)thiophene-2-carboxamide]: the Ki in assay [1] is 151 nM. Further, the inhibition at 31.6 µM in assay [3] came to 72%. In addition, in assay [2], the Ki was 1.5 nM and the “Selectivity Ki(hCatS)/Ki(hCatK)” value is on record as 99.

As to `O=C(N[C@H](C(=O)N1C[C@H](Cl)[C@H]2OCC(=O)[C@H]21)C1CCCC1)c1ccc(-c2cccnc2)s1` [Example 2, N—((S)-2-((3aS,6S,6aS)-6-chloro-3-oxotetrahydro-2H-furo[3,2-b]pyrrol-4(5H)-yl)-1-cyclopentyl-2-oxoethyl)-5-(pyridin-3-yl)thiophene-2-carboxamide], the inhibition constant (Ki) in assay [1] is 308 nM. In assay [3], the inhibition at 31.6 µM is 45%. For the same molecule, in assay [2], the Ki is 0.7 nM and the “Selectivity Ki(hCatS)/Ki(hCatK)” value came out at 453.

Consider `O=C(N[C@H](C(=O)N1C[C@H](Cl)[C@H]2OCC(=O)[C@H]21)C1CCCC1)c1ccc(-c2cncnc2)s1` [Example 3, N—((S)-2-((3aS,6S,6aS)-6-chloro-3-oxotetrahydro-2H-furo[3,2-b]pyrrol-4(5H)-yl)-1-cyclopentyl-2-oxoethyl)-5-(pyrimidin-5-yl)thiophene-2-carboxamide], for which the values for the Ki in assay [1] and in assay [2] were 110 nM and 2.1 nM, respectively. In addition, in assay [3], the inhibition at 31.6 µM was determined as 73%. For the same molecule, the “Selectivity Ki(hCatS)/Ki(hCatK)” value in assay [2] came to 53.

`O=C(N[C@H](C(=O)N1C[C@H](Cl)[C@H]2OCC(=O)[C@H]21)C1CCCC1)c1ccc(-c2ccnnc2)s1` [Example 4, N—((S)-2-((3aS,6S,6aS)-6-chloro-3-oxotetrahydro-2H-furo[3,2-b]pyrrol-4(5H)-yl)-1-cyclopentyl-2-oxoethyl)-5-(pyridazin-4-yl)thiophene-2-carboxamide]: in assay [1], the Ki was 39.8 nM. The inhibition at 31.6 µM in assay [3] was determined as 73%. Moreover, in assay [2], the Ki was 1.8 nM and the “Selectivity Ki(hCatS)/Ki(hCatK)” value was 22.

As to `O=C(N[C@H](C(=O)N1C[C@H](Cl)[C@H]2OCC(=O)[C@H]21)C1CCCC1)c1ccc(-c2cnccn2)s1` [Example 5, N—((S)-2-((3aS,6S,6aS)-6-chloro-3-oxotetrahydro-2H-furo[3,2-b]pyrrol-4(5H)-yl)-1-cyclopentyl-2-oxoethyl)-5-(pyrazin-2-yl)thiophene-2-carboxamide], the Ki in assay [1] was 355 nM; in assay [2] it was 2.1 nM. For the same molecule, the inhibition at 31.6 µM in assay [3] is 81%. Further, the “Selectivity Ki(hCatS)/Ki(hCatK)” value in assay [2] was found to be 169.

As for `O=C(N[C@H](C(=O)N1C[C@H](Cl)[C@H]2OCC(=O)[C@H]21)C1CCCC1)c1ccc(-c2cncc(F)c2)s1` [Example 6, N—((S)-2-((3aS,6S,6aS)-6-chloro-3-oxotetrahydro-2H-furo[3,2-b]pyrrol-4(5H)-yl)-1-cyclopentyl-2-oxoethyl)-5-(5-fluoropyridin-3-yl)thiophene-2-carboxamide], the results for the Ki in assay [1] and in assay [2] were 174 nM and 3.1 nM, respectively. For the same molecule, the inhibition at 31.6 µM in assay [3] was 42%. Also, the “Selectivity Ki(hCatS)/Ki(hCatK)” value in assay [2] is recorded as 55.

As for `O=C(N[C@H](C(=O)N1C[C@H](Cl)[C@H]2OCC(=O)[C@H]21)C1CCCC1)c1ncc(-c2cccnn2)s1` [Example 7, N—((S)-2-((3aS,6S,6aS)-6-chloro-3-oxotetrahydro-2H-furo[3,2-b]pyrrol-4(5H)-yl)-1-cyclopentyl-2-oxoethyl)-5-(pyridazin-3-yl)thiazole-2-carboxamide], the Ki in assay [1] is 263 nM. In addition, the inhibition at 31.6 µM in assay [3] is 62%. Also, in assay [2], the inhibitory constant (Ki) is 5.3 nM and the “Selectivity Ki(hCatS)/Ki(hCatK)” value stood at 50.

As to `O=C(N[C@H](C(=O)N1C[C@H](Cl)[C@H]2OCC(=O)[C@H]21)C1CCCC1)c1ccc(-c2ccncc2)s1` [Example 8, N—((S)-2-((3aS,6S,6aS)-6-chloro-3-oxotetrahydro-2H-furo[3,2-b]pyrrol-4(5H)-yl)-1-cyclopentyl-2-oxoethyl)-5-(pyridin-4-yl)thiophene-2-carboxamide], the Ki in assay [1] is 160 nM. Besides, the inhibition at 31.6 µM in assay [3] is 50%. Further, in assay [2], the Ki was 0.8 nM and the “Selectivity Ki(hCatS)/Ki(hCatK)” value came to 210.
